Laboratory results from PubChem BioAssay (NCI).
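At the GI50, growth is halved. TGI: total growth inhibition.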

Key:
Assay in all cases: growth of human tumour cells (NCI), 384-well format
[1] = tested on: SNB-75 CNS
[2] = tested on: DU-145 prostate
[3] = tested on: 786-0 renal
[4] = tested on: HCC-2998 colon
[5] = tested on: SK-MEL-5 melanoma
[6] = tested on: CAKI-1 renal
[7] = tested on: PC-3 prostate
[8] = tested on: HCT-116 colon
[9] = tested on: UACC-257 melanoma
[10] = tested on: OVCAR-8 ovarian
[11] = tested on: MDA-MB-231 breast
[12] = tested on: A498 renal
[13] = tested on: NCI-H322M lung
[14] = tested on: MALME-3M melanoma
[15] = tested on: CCRF-CEM leukemia
[16] = tested on: NCI-H23 lung
[17] = tested on: SF-539 CNS
[18] = tested on: NCI-H522 lung
[19] = tested on: HL-60(TB) leukemia
[20] = tested on: NCI-H226 lung
[21] = tested on: SK-MEL-2 melanoma
[22] = tested on: LOX IMVI melanoma
[23] = tested on: SK-MEL-28 melanoma
[24] = tested on: KM12 colon
[25] = tested on: T-47D breast
[26] = tested on: MDA-MB-468 breast
[27] = tested on: UO-31 renal
[28] = tested on: EKVX NSCLC
[29] = tested on: HOP-92 NSCLC
[30] = tested on: U251 glioblastoma
[31] = tested on: SN12C renal
[32] = tested on: COLO 205 colon
[33] = tested on: RPMI-8226 leukemia
[34] = tested on: SK-OV-3 ovarian
[35] = tested on: NCI-H460 NSCLC
[36] = tested on: HT29 colon
[37] = tested on: SW-620 colon
[38] = tested on: MDA-MB-435 melanoma
[39] = tested on: TK-10 renal
[40] = tested on: HS 578T breast
[41] = tested on: UACC-62 melanoma
[42] = tested on: M14 melanoma
[43] = tested on: SF-268 CNS
[44] = tested on: HOP-62 NSCLC
[45] = tested on: BT-549 breast
[46] = tested on: SNB-19 CNS
[47] = tested on: OVCAR-5 ovarian
[48] = tested on: OVCAR-3 ovarian
[49] = tested on: IGROV1 ovarian
[50] = tested on: OVCAR-4 ovarian
[51] = tested on: ACHN renal
[52] = tested on: NCI/ADR-RES ovarian
[53] = tested on: MCF7 breast
[54] = tested on: MOLT-4 leukemia
[55] = tested on: SF-295 CNS
[56] = tested on: K-562 leukemia
[57] = tested on: A549 NSCLC
[58] = tested on: HCT-15 colon
[59] = tested on: RXF 393 renal
[60] = tested on: SR leukemia

CC[C@H](CC#N)OC(=O)N[C@@H](C)c1cccc(NC(=O)Nc2ccc(-c3cnco3)c(OC)c2)c1
GI50 [1]: 0.685 µM
TGI [1]: 14.3 µM
GI50 [2]: 0.168 µM
TGI [2]: 11 µM
GI50 [3]: 0.154 µM
TGI [3]: 1.87 µM
GI50 [4]: 0.212 µM
TGI [4]: 1.45 µM
GI50 [5]: 0.0787 µM
TGI [5]: 0.348 µM
GI50 [6]: 0.243 µM
TGI [6]: 11.9 µM
GI50 [7]: 0.178 µM
TGI [7]: 10.9 µM
GI50 [8]: 0.075 µM
TGI [8]: 10.6 µM
GI50 [9]: 0.288 µM
TGI [9]: 11.5 µM
GI50 [10]: 0.354 µM
TGI [10]: 13.9 µM
GI50 [11]: 0.3 µM
TGI [11]: 20.6 µM
GI50 [12]: 0.0569 µM
TGI [12]: 1.72 µM
GI50 [13]: 0.275 µM
TGI [13]: 14.7 µM
GI50 [14]: 0.168 µM
TGI [14]: 13.1 µM
GI50 [15]: 0.0649 µM
TGI [15]: 0.248 µM
GI50 [16]: 0.154 µM
TGI [16]: 0.664 µM
GI50 [17]: 0.108 µM
TGI [17]: 8.86 µM
GI50 [18]: 0.428 µM
TGI [18]: 11.9 µM
GI50 [19]: 0.0539 µM
TGI [19]: 0.22 µM
GI50 [20]: 0.297 µM
TGI [20]: 10.5 µM
GI50 [21]: 0.506 µM
TGI [21]: 4.37 µM
GI50 [22]: 0.0689 µM
TGI [22]: 1.4 µM
GI50 [23]: 0.126 µM
TGI [23]: 11 µM
GI50 [24]: 0.168 µM
TGI [24]: 12.4 µM
GI50 [25]: 0.486 µM
TGI [25]: 10.6 µM
GI50 [26]: 0.14 µM
TGI [26]: 0.825 µM
GI50 [27]: 0.354 µM
TGI [27]: 8.35 µM
GI50 [28]: 0.349 µM
TGI [28]: 12.3 µM
GI50 [29]: 0.637 µM
TGI [29]: 22.7 µM
GI50 [30]: 0.0455 µM
TGI [30]: 11.4 µM
GI50 [31]: 0.314 µM
TGI [31]: 16.6 µM
GI50 [32]: 0.0463 µM
TGI [32]: 13.1 µM
GI50 [33]: 0.216 µM
TGI [33]: 0.957 µM
GI50 [34]: 0.0574 µM
TGI [34]: 0.898 µM
GI50 [35]: 0.074 µM
TGI [35]: 0.263 µM
GI50 [36]: 0.137 µM
TGI [36]: > 100 µM
GI50 [37]: 0.0777 µM
TGI [37]: 12 µM
GI50 [38]: 0.353 µM
TGI [38]: 14.6 µM
GI50 [39]: 0.416 µM
TGI [39]: 18.5 µM
GI50 [40]: 0.171 µM
TGI [40]: 1.54 µM
GI50 [41]: 0.236 µM
TGI [41]: 10.6 µM
GI50 [42]: 0.159 µM
TGI [42]: 1.14 µM
GI50 [43]: 0.244 µM
TGI [43]: 11 µM
GI50 [44]: 0.258 µM
TGI [44]: 10.7 µM
GI50 [45]: 0.115 µM
TGI [45]: 0.951 µM
GI50 [46]: 0.166 µM
TGI [46]: > 100 µM
GI50 [47]: 0.27 µM
TGI [47]: > 100 µM
GI50 [48]: 0.0575 µM
TGI [48]: 10.6 µM
GI50 [49]: 0.0607 µM
TGI [49]: 10.6 µM
GI50 [50]: 0.373 µM
TGI [50]: 15.8 µM
GI50 [51]: 0.21 µM
TGI [51]: 12.7 µM
GI50 [52]: 5.6 µM
TGI [52]: 18 µM
GI50 [53]: 0.159 µM
TGI [53]: 11.3 µM
GI50 [54]: 0.02 µM
TGI [54]: 0.0367 µM
GI50 [55]: 0.316 µM
TGI [55]: 12 µM
GI50 [56]: 0.0484 µM
TGI [56]: 11.2 µM
GI50 [57]: 0.0657 µM
TGI [57]: 1.68 µM
GI50 [58]: 0.286 µM
TGI [58]: 11.8 µM
GI50 [59]: 0.168 µM
TGI [59]: 0.66 µM

C[C@@H]1COCCN1c1cc(C2(S(C)(=N)=O)CC2)nc(-c2ccnc3[nH]ccc23)n1 (stereo partly specified)
GI50 [1]: 4.52 µM
TGI [1]: 14.3 µM
GI50 [2]: 3.17 µM
TGI [2]: 14 µM
GI50 [3]: 1.82 µM
TGI [3]: 5.72 µM
GI50 [4]: 0.967 µM
TGI [4]: 3.58 µM
GI50 [5]: 3.62 µM
TGI [5]: 12.8 µM
GI50 [6]: 2.84 µM
TGI [6]: > 40 µM
GI50 [7]: 5.4 µM
TGI [7]: 31.3 µM
GI50 [60]: 0.153 µM
TGI [60]: 0.45 µM
GI50 [8]: 2.54 µM
TGI [8]: > 100 µM
GI50 [9]: 13 µM
TGI [9]: 27.5 µM
GI50 [10]: 5.49 µM
TGI [10]: 18 µM
GI50 [11]: 5.68 µM
TGI [11]: > 44.6 µM
GI50 [12]: 0.637 µM
TGI [12]: 2.25 µM
GI50 [13]: 1.11 µM
TGI [13]: 5.59 µM
GI50 [14]: 5.67 µM
TGI [14]: 16.8 µM
GI50 [15]: 0.638 µM
TGI [15]: 1.9 µM
GI50 [16]: 1.24 µM
TGI [16]: 3.26 µM
GI50 [17]: 1.29 µM
TGI [17]: 5.89 µM
GI50 [18]: 9.39 µM
TGI [18]: 25 µM
GI50 [19]: 1 µM
TGI [19]: 2.53 µM
GI50 [20]: 8.14 µM
TGI [20]: 46.2 µM
GI50 [21]: 0.685 µM
TGI [21]: 2.46 µM
GI50 [22]: 1.29 µM
TGI [22]: 8.31 µM
GI50 [23]: 11.6 µM
TGI [23]: 24.8 µM
GI50 [24]: 1.63 µM
TGI [24]: 22.3 µM
GI50 [25]: 8.7 µM
TGI [25]: > 43.1 µM
GI50 [26]: 4.8 µM
TGI [26]: 18.6 µM
GI50 [28]: 4.78 µM
TGI [28]: 19.9 µM
GI50 [29]: 2.04 µM
TGI [29]: > 28.4 µM
GI50 [30]: 4.85 µM
TGI [30]: 29 µM
GI50 [31]: 2.96 µM
TGI [31]: 17.1 µM
GI50 [32]: 9.75 µM
TGI [32]: 31.1 µM
GI50 [33]: 1.4 µM
TGI [33]: 3.2 µM
GI50 [34]: 1.78 µM
TGI [34]: 18.9 µM
GI50 [35]: 0.541 µM
TGI [35]: 4.87 µM
GI50 [36]: 3.55 µM
TGI [36]: 15.8 µM
GI50 [37]: 2.77 µM
TGI [37]: 50.4 µM
GI50 [38]: 3.71 µM
TGI [38]: 11.3 µM
GI50 [39]: 0.756 µM
TGI [39]: 3.58 µM
GI50 [40]: 2.45 µM
TGI [40]: 12 µM
GI50 [41]: 3.01 µM
TGI [41]: 14.4 µM
GI50 [42]: 1.64 µM
TGI [42]: 4.36 µM
GI50 [43]: 6.17 µM
TGI [43]: 24 µM
GI50 [44]: 1.34 µM
TGI [44]: 3.58 µM
GI50 [45]: 1.93 µM
TGI [45]: 9.01 µM
GI50 [46]: 6.13 µM
TGI [46]: 57.3 µM
GI50 [47]: 3.98 µM
TGI [47]: 22.4 µM
GI50 [48]: 3.03 µM
TGI [48]: 18.1 µM
GI50 [49]: 2.67 µM
TGI [49]: 23 µM
GI50 [50]: 2 µM
TGI [50]: 9.93 µM
GI50 [51]: 0.71 µM
TGI [51]: 3.6 µM
GI50 [52]: 17 µM
TGI [52]: 53.1 µM
GI50 [53]: 0.615 µM
TGI [53]: > 39.4 µM
GI50 [54]: 1.02 µM
TGI [54]: 2.26 µM
GI50 [55]: 2.47 µM
TGI [55]: 9.13 µM
GI50 [56]: 2.35 µM
TGI [56]: 6.73 µM
GI50 [57]: 3.54 µM
TGI [57]: > 44.4 µM
GI50 [58]: 2.21 µM
TGI [58]: 13.7 µM
GI50 [59]: 2.67 µM
TGI [59]: 9.58 µM
